{"source": "patent US20110128610A1", "about": "“PHENOLIC CONFIGURATIONALLY LOCKED POLYENE BULK SINGLE CRYSTALS, CRYSTALLINE THIN FILMS AND WAVEGUIDES FOR ELECTRO-OPTICS AND THZ-WAVE APPLICATIONS” (priority 2008, published 2011)", "key": {"[1]": {"conditions": "comparison crystals; cited from earlier work"}, "[2]": {"conditions": "comparison crystals from literature [13], [11, 18, 12]; cited from earlier work"}, "[3]": {"conditions": "comparison crystals from literature; cited from earlier work"}, "[4]": {"experiment": "Thermal stability by thermogravimetric analysis (thermal weight-loss temperature Ti)", "type": "physicochemical", "conditions": "TGA under nitrogen atmosphere, scan rate 10° C./min", "experimental": "The thermal stability of the OH1 chromophore was investigated using thermogravimetric analysis (TGA) and differential scanning calorimetry (DSC) under nitrogen atmosphere (scan rate: 10° C./min). The melting temperature Tm is defined here as the peak position in the DSC scan. The thermal weight-loss temperature Ti estimated as the temperature at the intercept of the leading edge of the weight loss by the base line of the TGA scans. […] The high thermal stability of OH1 crystals is an advantage for applying a melt-based crystal growth that is difficult for the ionic salts, e.g. DAST that decomposes at the melting temperature."}, "[5]": {"experiment": "Solubility of OH1 and comparison crystals in methanol and other organic solvents", "type": "physicochemical", "experimental": "OH1 molecules are dissolved very well in acetone and acetonitrile, and relatively good in ethanol and methanol. We selected methanol as the solvent for growing the crystals because the solubility in acetone is too high and the solute yield on decreasing the temperature is the most efficient in methanol.\nThe solubility of OH1 in methanol as a function of temperature is shown in FIG. 25; the solid curve is according to the Van't Hoff equation with the solution enthalpy ΔH=29±2 kJ/mol and entropy change ΔS=[…]."}, "Solubility in water": {"experiment": "Solubility in water", "type": "physicochemical"}}, "note": "“And” between values parts separate entries of the source, which are not always exact repeats. Equal values may be shown once. Read-outs that look alike come from different tables or passages of the source.", "data": [{"compound": "CN(C)c1ccc(C=CC2=CC(=C(C#N)C#N)CC(C)(C)C2)cc1", "note": "[DAT2]", "values": [{"measurement": "solubility in water", "setting": "[1]", "value": "insoluble"}, {"measurement": "solubility at 40° C. (g/100 g methanol)", "setting": "[2]", "value": "<0.01", "unit": "g/100 g methanol"}, {"measurement": "thermal weight-loss temperature Ti", "setting": "[3]", "value": 293, "unit": "°C"}]}, {"compound": "CC1CC(C=Cc2ccc(O)cc2)=CC(=C(C#N)C#N)C1", "note": "(stereo not shown) [OH2, 2-(3-(4-hydroxystyryl)-5-methylcyclohex-2-enylidene)malononitrile]", "values": [{"measurement": "thermal weight-loss temperature Ti", "setting": "[4]", "value": "242/326 °C"}]}, {"compound": "CN(C)c1ccc(C=Cc2cc[n+](C)cc2)cc1.Cc1ccc(S(=O)(=O)[O-])cc1", "note": "[DAST, 4′-dimethylamino-N-methyl-4-stilbazolium tosylate]", "values": [{"measurement": "solubility in water", "setting": "[1]", "value": "highly soluble"}, {"measurement": "solubility at 40° C. (g/100 g methanol)", "setting": "[2]", "value": 3.73, "unit": "g/100 g methanol"}, {"measurement": "thermal weight-loss temperature Ti", "setting": "[3]", "value": "250 °C and 250/250 °C"}]}, {"compound": "CC1(C)CC(/C=C/c2ccc(O)cc2)=CC(=C(C#N)C#N)C1", "note": "[OH1, 2-(3-(4-hydroxystyryl)-5,5-dimethylcyclohex-2-enylidene)malononitrile]", "values": [{"measurement": "Solubility in Acetone", "setting": "[5]; 25° C.", "value": 25.9, "unit": "g/100 g solvent"}, {"measurement": "Solubility in Acetone", "setting": "[5]; 40° C.", "value": 41.8, "unit": "g/100 g solvent"}, {"measurement": "Solubility in Acetonitrile", "setting": "[5]; 25° C.", "value": 4.32, "unit": "g/100 g solvent"}, {"measurement": "Solubility in Acetonitrile", "setting": "[5]; 40° C.", "value": 5.3, "unit": "g/100 g solvent"}, {"measurement": "Solubility in Ethanol", "setting": "[5]; 25° C.", "value": 2.34, "unit": "g/100 g solvent"}, {"measurement": "Solubility in Ethanol", "setting": "[5]; 40° C.", "value": 2.5, "unit": "g/100 g solvent"}, {"measurement": "Solubility in Methanol", "setting": "[5]; methanol, 25° C.", "value": 2.15, "unit": "g/100 g solvent"}, {"measurement": "solubility at 40° C. (g/100 g methanol)", "setting": "[5]; methanol, 40° C.", "value": 3.74, "unit": "g/100 g methanol"}, {"measurement": "Solubility in Methanol", "setting": "[5]; methanol, 40° C. (Table 9)", "value": 3.4, "unit": "g/100 g solvent"}, {"measurement": "Solubility in Methylene chloride", "setting": "[5]; 25° C.", "value": 1.4, "unit": "g/100 g solvent"}, {"measurement": "Solubility in Methylene chloride", "setting": "[5]; 40° C.", "value": 1.9, "unit": "g/100 g solvent"}, {"measurement": "solubility in water", "setting": "Solubility in water", "value": "insoluble"}]}]}
